Experimental data from patent US20160244437A1, “SUBSTITUTED PHENYLALANINE DERIVATIVES” (BAYER PHARMA AKTIENGESELLSCHAFT, priority 2013, published 2016).
Structures can show the parent of a compound that is named as a salt.

Key:
human and animal plasma = assay: Determination of anticoagulatory activity: activated partial thromboplastin time (aPTT) in plasma; settings: concentration of test substance which brings about a 1.5-fold extension of the aPTT; plasma in vitro, C.K. Prest kit
Outline: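 Citrated plasma (human, mouse, rat, rabbit, pig, dog) incubated with varying compound concentrations and cephalin/kaolin PTT reagent for 3 minutes at 37° C.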

human factor XIa = molecular target: T1, human factor XIa (Homo sapiens, UniProt P03951); assay: Measurement of FXIa inhibition (fluorogenic peptide substrate Boc-Glu(OBzl)-Ala-Arg-AMC); type: biochemical; settings: factor XIa from Kordia 0.45 nM, 15 min pre-incubation, 30 min at 22° C., fluorescence
T1 construct: purchased Kordia
T1 sequence (P03951 388-625 limits assumed): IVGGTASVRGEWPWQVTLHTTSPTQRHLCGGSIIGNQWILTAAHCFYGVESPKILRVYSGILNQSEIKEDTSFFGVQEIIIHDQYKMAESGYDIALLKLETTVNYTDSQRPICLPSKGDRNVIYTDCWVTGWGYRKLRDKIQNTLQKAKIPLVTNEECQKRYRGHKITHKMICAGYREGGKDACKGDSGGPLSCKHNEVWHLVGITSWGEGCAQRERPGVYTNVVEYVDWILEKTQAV
T1 sequence (P03951 19-387 partner limits assumed): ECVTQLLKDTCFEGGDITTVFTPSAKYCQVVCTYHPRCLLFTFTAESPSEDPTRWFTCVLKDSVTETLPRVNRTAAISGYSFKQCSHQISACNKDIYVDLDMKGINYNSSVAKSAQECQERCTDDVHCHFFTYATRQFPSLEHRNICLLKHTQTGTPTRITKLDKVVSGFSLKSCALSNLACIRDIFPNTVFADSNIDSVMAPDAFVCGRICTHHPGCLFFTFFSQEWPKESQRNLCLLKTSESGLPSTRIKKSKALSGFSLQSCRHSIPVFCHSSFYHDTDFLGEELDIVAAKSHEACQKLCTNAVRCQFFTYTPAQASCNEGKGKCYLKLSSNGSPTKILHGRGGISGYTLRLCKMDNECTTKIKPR

| Compound | IC50 (human factor XIa) | aPTT (human and animal plasma) |
| --- | --- | --- |
| Cc1nc(O)ccc1-c1cccc(C[C@H](NC(=O)[C@H]2CC[C@H](CN)CC2)C(=O)Nc2ccc(-c3nnn[nH]3)cc2)c1 [Example 98, N-alpha-{[trans-4-(Aminomethyl)cyclohexyl]carbonyl)}-3-(6-hydroxy-2-methylpyridin-3-yl)-N-[4-(1H-tetrazol-5-yl)phenyl]-L-phenylalaninamide hydrochloride] | 5.4 nM | 0.2 µmol/L |
| CN(C)CCCOc1ccc(-c2cccc(C[C@H](NC(=O)[C@H]3CC[C@H](CN)CC3)C(=O)Nc3ccc4[nH]c(=O)[nH]c4c3)c2)cn1 [Example 100, N-alpha-{[trans-4-(Aminomethyl)cyclohexyl]carbonyl}-3-{6-[3-(dimethylamino)propoxy]pyridin-3-yl}-N-(2-oxo-2,3-dihydro-1H-benzimidazol-5-yl)-L-phenylalaninamide hydrochloride] | 59 nM | 0.34 µmol/L |
| CN(C)CCCOc1ccc(-c2cccc(C[C@H](NC(=O)[C@H]3CC[C@H](CN)CC3)C(=O)Nc3ccc(-c4nnc(C(F)(F)F)[nH]4)cc3)c2)cn1 [Example 101, N-alpha-{[trans-4-(Aminomethyl)cyclohexyl]carbonyl}-3-{6-[3-(dimethylamino)propoxy]pyridin-3-yl}-N-{4-[3-(trifluoromethyl)-4H-1,2,4-triazol-5-yl]phenyl}-L-phenylalaninamide hydrochloride] | 14 nM | 0.43 µmol/L |
| NC[C@H]1CC[C@H](C(=O)N[C@@H](Cc2cccc(-c3cnccc3Cl)c2)C(=O)Nc2ccc(-c3noc(=O)[nH]3)cc2)CC1 [Example 107, N-alpha-{[trans-4-(Aminomethyl)cyclohexyl]carbonyl}-3-(4-chloropyridin-3-yl)-N-[4-(5-oxo-4,5-dihydro-1,2,4-oxadiazol-3-yl)phenyl]-L-phenylalaninamide hydrochloride] | 6.2 nM | 0.7 µmol/L |
| CN(C)CCCOc1ccc(-c2cccc(C[C@H](NC(=O)[C@H]3CC[C@H](CN)CC3)C(=O)Nc3ccc(-c4nc(C(F)(F)C(F)(F)C(F)(F)C(=O)O)n[nH]4)cc3)c2)cn1 [Example 108, 4-(5-{4-[(N-{[trans-4-(Aminomethyl)cyclohexyl]carbonyl}-3-{6-[3-(dimethylamino)propoxy]pyridin-3-yl}-L-phenylalanyl)amino]phenyl}-1H-1,2,4-triazol-3-yl)-2,2,3,3,4,4-hexafluorobutanoic acid hydrochloride] | 5.5 nM | 0.25 µmol/L |
| CN(C)CCCOc1ccc(-c2cccc(C[C@H](NC(=O)[C@H]3CC[C@H](CN)CC3)C(=O)Nc3ccc(-c4nc(C(F)(F)C(F)(F)C(=O)O)n[nH]4)cc3)c2)cn1 [Example 109, hydrochloride] | 6 nM | 0.16 µmol/L |

More lines, main results first:

| IC50 (human factor XIa) | Compound | aPTT (human and animal plasma) |
| --- | --- | --- |
| 2.2 nM | Cc1cc(N2CCOCC2)ncc1-c1cccc(C[C@H](NC(=O)[C@H]2CC[C@H](CN)CC2)C(=O)Nc2ccc(-c3nnc(Cl)[nH]3)cc2)c1 [Example 102, N-alpha-{[trans-4-(Aminomethyl)cyclohexyl]carbonyl}-N-[4-(3-chloro-4H-1,2,4-triazol-5-yl)phenyl]-3-[4-methyl-6-(morpholin-4-yl)pyridin-3-yl]-L-phenylalaninamide hydrochloride] | 0.43 µmol/L |
| 3.3 nM | Cc1ccc(N)cc1-c1cccc(C[C@H](NC(=O)[C@H]2CC[C@H](CN)CC2)C(=O)Nc2ccc(-c3nnn[nH]3)cc2)c1 [Example 103, trans-4-(Aminomethyl)-N-[(2S)-3-(5′-amino-2′-methylbiphenyl-3-yl)-1-oxo-1-{[4-(1H-tetrazol-5-yl)phenyl]amino}propan-2-yl]cyclohexanecarboxamide hydrochloride] | 0.1 µmol/L |
| 13 nM | COCc1nnc(-c2ccc(NC(=O)[C@H](Cc3cccc(-c4cccc5ncccc45)c3)NC(=O)[C@H]3CC[C@H](CN)CC3)cc2)[nH]1 [Example 105, N-alpha-{[trans-4-(Aminomethyl)cyclohexyl]carbonyl}-3-quinolin-5-yl-N-{4-[5-(methoxymethyl)-4H-1,2,4-triazol-3-yl]phenyl}-L-phenylalaninamide hydrochloride] | 0.14 µmol/L |
| 5.7 nM | NC[C@H]1CC[C@H](C(=O)N[C@@H](Cc2cccc(-c3cncc(S(=O)(=O)NC4CCNCC4)c3)c2)C(=O)Nc2ccc(-c3nnc(Cl)[nH]3)cc2)CC1 [Example 106, N-alpha-{[trans-4-(Aminomethyl)cyclohexyl]carbonyl}-N-[4-(3-chloro-4H-1,2,4-triazol-5-yl)phenyl]-3-[5-(piperidin-4-ylsulphamoyl)pyridin-3-yl]-L-phenylalaninamide hydrochloride] | 0.13 µmol/L |
